This passage reports melting point results from US6380218B1, “Nicotinamide derivatives” (Pfizer Inc, priority 1997, dated 2002).

Molecules are shown by their SMILES. Structures can show the parent of a compound that is named as a salt.

By melting point is commonly meant the temperature of the solid-liquid transition. With `OC(CCc1c(F)cc(F)cc1F)c1cccnc1Oc1ccc(F)cc1` (stereo not drawn) [Example 274, 1-[2-(4-Fluoro-phenoxy)-pyridin-3-yl]-3-(2,4,6-trifluoro-phenyl)-propan-1-ol], the melting point fell in the range of 90 to 91 °C.
To `CC(=O)c1cccc(Oc2ncccc2C(=O)NCc2ccncc2)c1` [Example 220, 2-(3-Acetyl-phenoxy)-N-pyridin-4-ylmethyl-nicotinamide] belongs 148 to 150 °C.
To `O=C(NCc1ccc(O)cc1)c1cccnc1Oc1cccnc1` [Example 104, N-(4-Hydroxy-benzyl)-2-(pyridin-3yloxy)-nicotinamide] belongs 156 to 158 °C; to `O=C(NCc1ccc(Cl)s1)c1cccnc1Oc1cccnc1` [Example 16, N-(5-Chloro-thiophen-2-ylmethyl)-2-(pyridin-3-yloxy)-nicotinamide], 110 to 112 °C; to `COC(=O)c1ccc(CNC(=O)c2cccnc2Oc2cccnc2)cc1` [Example 37, 4-({[2-(Pyridin-3-yloxy)-pyridine-3-carbonyl]-amino}-methyl)-benzoicacid methyl ester], 125 to 127 °C.
The figure for `CC(C)(O)c1ccc(CNC(=O)c2cccnc2Oc2ccc(F)c(C#N)c2)c(Cl)c1` [Example 244, N-[2-Chloro-4-(1-hydroxy-1-methyl-ethyl)-benzyl]-2-(3-cyano-4-fluoro-phenoxy)-nicotinamide] is 151 to 153 °C; for `NS(=O)(=O)c1ccc(CNC(=O)c2cccnc2Oc2cccnc2)cc1` [Example 178, 2-(Pyridin-3-yloxy)-N-(4-sulfamoyl-benzyl)-nicotinamide] it is 196 to 197 °C.
`C[C@@H](NC(=O)c1cccnc1Oc1cccnc1)c1cccs1` (as salt: HCl) [Example 47, (R)(−)-2-(Pyridin-3-yloxy)-N-(1-thiophen-2-yl-ethyl)-nicotinamide] yielded a melting point of 197 to 199 °C.
In the case of `CC(=O)c1cc(Cl)cc(Oc2ncccc2C(=O)NC[C@H]2CC[C@H](C(C)(C)O)CC2)c1` [Example 308, 2-(3-Acetyl-5-chloro-phenoxy)-N-(trans-4-(1-hydroxy-1-methyl-ethyl)-cyclohexylmethyl)-nicotinamide], the melting point lay within 133 to 135 °C.
As to `COc1ccc(CCC(=O)c2cccnc2Oc2ccc(F)cc2)cc1` [Example 249, 1-[2-(4-Fluorophenoxy)-3-pyridinyl]-3-(4-methoxyphenyl)-1-propanone], the melting point lay within 73 to 74 °C.
To `O=C(NCc1cc(Cl)cs1)c1cccnc1Oc1ccc(F)cc1` [Example 62, N-(4-Chloro-thiophen-2-ylmethyl)-2-(4-fluoro-phenoxy)-nicotinamide] belongs 99 to 101 °C; to `O=C(CCc1ccc(F)cc1)c1cccnc1Oc1cccnc1` [Example 258, 3-(4-Fluoro-phenyl)-1-[2-(pyridin-3-yloxy)-pyridin-3-yl]-propan-1-one], 62 to 64 °C; to `N#Cc1cccc(Oc2ncccc2C(=O)NCc2ccc3c(c2)CC(=O)N3)c1` [Example 112, 2-(3-Cyano-phenoxy)-N-(2-oxo-2,3-dihydro-1H-indol-5-ylmethyl)-nicotinamide], 197 to 199 °C.
`O=C(NCc1ccc2c(c1)OCO2)c1cccnc1Oc1cccnc1` [Example 182, N-Benzo[1,3]dioxol-5-ylmethyl-2-(pyridin-3-yloxy)-nicotinamide] registered a melting point of 130 to 131 °C.
`O=C(COc1ccccc1)c1cccnc1Oc1ccc(F)cc1` [Example 265, 1-[2-(4-Fluoro-phenoxy)-pyridin-3-yl]-2-phenoxy-ethanone]: the melting point was in the range of 105.5 to 106.5 °C.
The figure for `CC(=O)c1cccc(Oc2ncccc2C(=O)NCc2ccc([C@@H](C)O)cc2)c1` [Example 307, (R)-(+)-2-(3-Acetyl-phenoxy)-N-(4-(1-hydroxy-ethyl)-benzyl)-nicotinamide] is 104 to 106 °C.
To `O=C(NCc1ccccc1F)c1cccnc1Oc1cccnc1` [Example 26, N-(2-Fluoro-benzyl)-2-(pyridin-3-yloxy)-nicotinamide] belongs 90 to 92 °C.
Consider `CC(NC(=O)c1cccnc1Oc1cccnc1)c1cccs1` (stereo not drawn) [Example 45, 2-(Pyridin-3-yloxy)-N-(1-thiophen-2yl-ethyl)-nicotinamide], for which the melting point lay within 90 to 92 °C.
Turning to `CC(C)(O)c1ccc(CNC(=O)c2cccnc2Oc2cc(F)cc(F)c2)cc1` [Example 238, 2-(3,5-Difluoro-phenoxy)-N-[4-(1-hydroxy-1-methyl-ethyl)-benzyl]-nicotinamide], the melting point was 68 to 70 °C.
The figure for `CC(C)(O)c1ccc(CNC(=O)c2cccnc2Oc2ccc(F)cc2)o1` [Example 79, 2-(4-Fluoro-phenoxy)-N-[5-(1-hydroxy-1-methyl-ethyl)-furan-2-ylmethyl]-nicotinamide] is 88 to 90 °C; for `O=C(NCc1ccc(Cl)s1)c1cccnc1Oc1cccc([N+](=O)[O-])c1` [Example 109, N-(5-Chloro-thiophen-2-ylmethyl)-2-(3-nitro-phenoxy)-nicotinamide] it is 115 to 117 °C; for `CC(C)(O)c1ccc(CNC(=O)c2cccnc2Oc2cccnc2)cc1` [Example 36, N-[4-(1-Hydroxy-1-methyl-ethyl)-benzyl]-2-(pyridin-3-yloxy)-nicotinamide] it is 79 to 81 °C.
To `O=C(NCc1ccccc1Cl)c1cccnc1Oc1ccc(F)cc1` [Example 9, N-(2-Chloro-benzyl)-2-(4-fluoro-phenoxy)-nicotinamide] belongs 118 to 120 °C; to `CC(C)(O)c1ccc(CNC(=O)c2cccnc2Oc2ccc3c(c2)OCO3)c(F)c1` [Example 327, 2-(Benzo[1,3]dioxol-5-yloxy)-N-[2-fluoro-4-(1-hydroxy-1-methyl-ethyl)-benzyl]-nicotinamide], 94 to 95 °C.
To `O=C(NCc1ccc(C(F)(F)F)s1)c1cccnc1Oc1cccnc1` [Example 30, 2-(Pyridin-3-yloxy)-N-(5-trifluoromethyl-thiophen-2-ylmethyl)-nicotinamide] belongs 122 to 124 °C.
In turn, `Cc1ccc(CNC(=O)c2cccnc2Oc2cncc(Cl)c2)o1` [Example 53, 2-(5-Chloro-pyridin-3-yloxy)-N-(5-methyl-furan-2-ylmethyl)-nicotinamide] came in with a melting point of 103 to 105 °C.
To `CN(CC(=O)c1cccnc1Oc1ccc(F)cc1)c1ccccc1` [Example 270, 1-[2-(4-Fluoro-phenoxy)-pyridin-3-yl]-2-(methyl-phenyl-amino)-ethanone] belongs 126 to 128 °C; to `O=C(NCc1ccco1)c1cccnc1Oc1cccnc1` [Example 15, N-Furan-2-ylmethyl-2-(pyridin-3-yloxy)-nicotinamide], 84 to 86 °C.
To `CC(C)(O)c1ccc(CNC(=O)c2cccnc2Oc2ccc(F)cc2)c(Cl)c1` [Example 86, N-[2-Chloro-4-(1-hydroxy-1-methyl-ethyl)-benzyl]-2-(4-fluoro-phenoxy)-nicotinamide] belongs 102 to 104 °C.
Turning to `O=C(CCc1c(F)cc(F)cc1F)c1cccnc1Oc1ccc(F)cc1` [Example 255, 1-[2-(4-Fluoro-phenoxy)-pyridin-3-yl]-3-(2,4,6-trifluoro-phenyl)-propan-1-one], the melting point was in the range of 84 to 85 °C.
The figure for `O=C(NCc1ccc(C2(O)CCC2)cc1)c1cccnc1Oc1ccc(F)cc1` [Example 85, 2-(4-Fluoro-phenoxy)-N-[4-(1-hydroxy-cyclobutyl)-benzyl]-nicotinamide] is 95 to 97 °C.
To `O=C(NCC1CCC=CO1)c1cccnc1Oc1ccc(F)cc1` (stereo not drawn) [Example 195, N-(3,4-Dihydro-2H-pyran-2-ylmethyl)-2-(4-fluoro-phenoxy)-nicotinamide] belongs 55 to 57 °C; to `Cc1ccc(CNC(=O)c2cccnc2Oc2cccnc2)s1` [Example 18, N-(5-Methyl-thiophen-2-ylmethyl)-2-(pyridin-3-yloxy)-nicotinamide], 111 to 113 °C.
The figure for `CC(O)c1ccc(CNC(=O)c2cccnc2Oc2cccnc2)s1` (stereo not drawn) [Example 160, N-[5-(1-Hydroxy-ethyl)-thiophen-2-ylmethyl]-2-(pyridin-3yloxy)-nicotinamide] is 92 to 94 °C; for `O=C(NCc1ccc(C2(O)CCC2)cc1)c1cccnc1Oc1ccc(F)c(F)c1` [Example 232, 2-(3,4-Difluoro-phenoxy)-N-[4-(1-hydroxy-cyclobutyl)-benzyl]-nicotinamide] it is 74 to 76 °C.
Turning to `COc1ccc(CNC(=O)c2cccnc2Oc2cccnc2)cc1` [Example 29, N-(4-Methoxy-benzyl)-2-(pyridin-3-yloxy)-nicotinamide], the melting point fell in the range of 62 to 64 °C.
With `O=C(NCc1sc(Cl)cc1Cl)c1cccnc1Oc1ccc(F)cc1` [Example 97, N-(3,5-Dichloro-thiophen-2ylmethyl)-2-(4-fluoro-phenoxy)-nicotinamide], the melting point was 132 to 134 °C.
To `O=C(NCc1ccco1)c1cccnc1Oc1ccc(F)cc1` [Example 2, 2-(4-Fluoro-phenoxy)-N-furan-2-ylmethyl-nicotinamide] belongs 71 to 73 °C; to `CC(C)(O)c1ccc(CNC(=O)c2cccnc2Oc2cccc(C#N)c2)c(Cl)c1` [Example 116, N-[2-Chloro-4-(1-hydroxy-1-methyl-ethyl)-benzyl]-2-(3-cyano-phenoxy)-nicotinamide], 121 to 123 °C.
Turning to `CC(C)(O)c1ccc(CNC(=O)c2cccnc2Oc2ccc3ncsc3c2)cc1` [Example 301, 2-(Benzothiazol-6-yloxy)-N-(4-(1-hydroxy-1-methyl-ethyl)-benzyl)-nicotinamide], the melting point fell in the range of 195 to 197 °C.
`CC(O)c1ccc(CNC(=O)c2cccnc2Oc2cccnc2)s1` (single isomer, unassigned; (+)) [Example 205, (+)-N-[5-(1-Hydroxy-ethyl)-thiophen-2-ylmethyl]-2-(pyridin-3-yloxy)-nicotinamide] displayed a melting point of 88 to 90 °C.
The figure for `O=C(NCc1ccccc1Cl)c1cccnc1Oc1cccc(F)c1` [Example 11, N-(2-Chloro-benzyl)-2-(3-fluoro-phenoxy)-nicotinamide] is 115 to 117 °C.
